Assay [1] has as its system P. aeruginosa las AHL-mediated pathway (PlasI-lacZ reporter). Kind of assay: Anti-quorum sensing β-galactosidase assay, las biomonitor (PlasI-lacZ with lasR expressed in E. coli DH5α). The note with it: for effect on las activity / lasI promoter expression (in words): tested at 50-200 μg/mL against 2 μM 3-oxo-C12-AHL. It counts as cell-based, Pseudomonas aeruginosa. The protocol: Anti-Quorum Sensing Assay (β-Galactosidase Assay). An overnight (O/N) culture of Escherichia coli DH5α harboring the plasmids pSC11, which contains a PlasI-lacZ translational fusion (24), and pJN105L, which contains a PBAD-lasR expression plasmid (25) grown in LB media (10 g tryptone, 5 g yeast extract, 5 g sodium chloride per liter) supplemented with ampillicin (100 μg/ml) and gentamycin (15 μg/ml), was diluted to an OD600 of 0.150. At this time, arabinose (0.2% w/v), N-3-(oxododecanoyl)homoserine lactone (3-oxo-C12-AHL; 2 μM), and either the compound under analysis or solvent (DMSO), was added to the culture (1.5 mL). A negative control containing only solvent and arabinose (0.2% w/v) was also assayed. The cultures were incubated with shaking for three hours at 37° C.
(§1) The conditions for the rhl biomonitor Escherichia coli DH5α harboring pECP61.5 plasmid, which contains Ptac-rhlR and PrhlA-lacZ (4), were essentially same except that the LB medium was only supplemented with ampillicin (100 μg/ml), the O/N culture was diluted to an OD600 of 0.150, induced with 1 mM IPTG, 2 μM C4—HSL and the compounds or the controls added when the OD600 reached 1.0. After incubation at 37° C. for 4 hours with shaking, β-galactosidase activity was assayed as described previously (28). Miller units were calculated as described (29). Assays were repeated at least twice. For each biological replicate, experimental triplicates were performed and the average percent activity calculated by dividing the average Miller units from the samples containing compound or extract by the average Miller units from the sample containing solvent and multiplying by 100. Significance of inhibition was determined using a paired two-tailed Student t-test.
(§2) Strains: E. coli DH5α harboring a PBAD-lasR expression plasmid and a PlasI-lacZ translational fusion plasmid was used as a biomonitor for the P. aeruginosa Las QS system, and e. coli XL-1Blue harboring a plasmid containing rhlA::lacZ translational fusion and Ptac-rhlR was used as a biomonitor for the P. aeruginosa Rhl QS system. V. harveyi strain B392 (MAV) was used.
Screening against las signaling. To determine the effect of the lactams (7, 16, and 17) and the cyclic azahemiacetal derivatives (10, 20 and 21) on the P. aeruginosa las AHL-mediated pathway, a las-dependent β-galactosidase reporter (PlasI-lacZ) was expressed with lasR in E. coli (24-25). […] The effect of synthetic compounds on the las activity was also compared with the addition of DMSO as a solvent. The propylthio lactam 7a and its azahemiacetal counterpart 10a were initially screened at a concentration of 100 μg/mL for their activity against the las system. […] This was dependent upon the addition of 2 μM of 3-oxo-C12-AHL. […] Cell growth was not inhibited by the addition of lactam and azahemiacetal compounds at the tested concentrations (data not shown).

Assay [2] relates to P. aeruginosa rhl AHL-mediated pathway (PrhlA-lacZ reporter). Kind of assay: Anti-quorum sensing β-galactosidase assay, rhl biomonitor (PrhlA-lacZ with rhlR expressed in E. coli). The note with it: for activity at 50 µg/mL / activity at 100 µg/mL / activity at 150 µg/mL / activity at 200 µg/mL: Escherichia coli, 4 h, read-out: Percent Activity ± Standard Deviation (PrhlA-lacZ expression relative to DMSO treated control); for effect on rhl activity (in words): tested at 50-200 μg/mL against 2 μM C4-AHL. It counts as cell-based, Pseudomonas aeruginosa. How it is done: as §1, §2
Screening Against the rhl Pathway. To determine the effect of the lactams (7, 16, and 17) and the cyclic azahemiacetal derivatives (10, 20 and 21) on the P. aeruginosa rhl AHL-mediated pathways, a rhl-dependent β-galactosidase reporter (PrhlA-lacZ) was expressed with rhlR in E. coli (24-25). […] The lactam analogues 7a-d stimulated rhl QS activities at higher concentrations with moderate potency. […] The strong inhibition observed with propylthio 10a and hexylthio 10b azahemiacetal analogues having side chain lengths similar to C4-AHL is in agreement with the structure activity relationship reported for various synthetic AHL mimetics targeting RhlR (26).

The target of assay [3] is LasR (Pseudomonas aeruginosa, UniProt P25084). The note with it: Smith et al, reference 9; cited from earlier work.
LasR, sequence (P25084 whole entry): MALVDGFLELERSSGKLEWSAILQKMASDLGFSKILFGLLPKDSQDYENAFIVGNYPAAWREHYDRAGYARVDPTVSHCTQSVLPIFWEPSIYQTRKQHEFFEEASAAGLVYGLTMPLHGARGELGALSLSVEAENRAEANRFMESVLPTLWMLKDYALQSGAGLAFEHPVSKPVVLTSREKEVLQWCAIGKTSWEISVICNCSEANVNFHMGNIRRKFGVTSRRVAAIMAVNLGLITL
Assay [4] deals with Vibrio harveyi. Description: Luminescence assay in Vibrio harveyi. It counts as cell-based. How it is done:
Luminescence Assay: Vibrio harveyi was grown in AB medium. A 2.5 mL aliquot of overnight culture of V. harveyi was added to 2.5 μL and 10 μL of each compound as well as the solvent. The compound was dissolved in water or DMSO to serve as a control. Growth and luminescence were measured simultaneously in a modified Spec20 for three hours. Growth was measured as OD600 and luminescence was recorded in light units (1 LU=6.51×10^8 quanta/sec/mL).
as §2

Setting [5] is: Pseudomonas aeruginosa, read-out: inhibition of las activity.
[6] abbreviates: Pseudomonas aeruginosa, read-out: inhibition of las reporter activity.

As a reminder, the inhibition is the change of the read-out against control, counted positive when it falls. With `CCCCCCCCCCCCSCC1CCC(=O)N1` (stereo not shown) [Compound 7d, 5-(Dodecylthiomethyl)pyrrolidin-2-one], the inhibition at 50 µg/mL in assay [1] (setting [5]) amounted to 48%. In addition, the “effect on las activity / lasI promoter expression (in words)” value in assay [1] is on record as “greatest inhibition at all concentrations tested”. In assay [2], the activity at 50 µg/mL was 103 ± 7%, the activity at 100 µg/mL was 106 ± 6%, the activity at 150 µg/mL turned out to be 109 ± 8% and the activity at 200 µg/mL worked out at 106 ± 5%.

As for `CCCCCCCCCCCCSCC1CCC(O)N1` (stereo not shown) [Compound 10d, 5-(Dodecylthiomethyl)pyrrolidin-2-ol], the “effect on las activity / lasI promoter expression (in words)” value in assay [1] was “moderate activity”. In assay [2], the activity at 50 µg/mL was determined as 98 ± 13%, the activity at 100 µg/mL was found to be 93 ± 27%, the activity at 150 µg/mL was found to be 91 ± 8% and the activity at 200 µg/mL was 96 ± 5%. Besides, the “effect on rhl activity (in words)” value in assay [2] was “inactive”.

For `CCCCCCCCCC(=O)CC(=O)NC1CCCCC1=O` (stereo not shown) [3-oxo-C12-(2-aminocyclohexanone)], the “antagonism of LasR system (in words)” value in assay [3] is given as “strong antagonist”.

On to `CCCCCCCCCSCC1CCC(O)N1` (stereo not shown) [Compound 10c, 5-(Nonanylthiomethyl)pyrrolidin-2-ol], for which, in assay [1], the “effect on las activity / lasI promoter expression (in words)” value was “moderate activity”. Further, in assay [2], the activity at 50 µg/mL turned out to be 93 ± 12%, the activity at 100 µg/mL came out at 80 ± 13%, the activity at 150 µg/mL came to 100 ± 11% and the activity at 200 µg/mL is 99 ± 3%. Besides, the “effect on rhl activity (in words)” value in assay [2] was “inactive”.

In the case of `CCCCCCCCCC(=O)CC(=O)N[C@H]1CCOC1=O` [3-oxo-C12-AHL, N-3-(oxododecanoyl)homoserine lactone, reference compound], the “effect on las activity / lasI promoter expression (in words)” value in assay [1] is “activated the PlasI-lacZ”.

With `CCCCCCCCCSCC1NC(O)C(O)C1O` (stereo not shown) [Compound 21, 3,4-Dihydroxy-5-(nonylthiomethyl)pyrrolidin-2-ol], the “effect on las activity / lasI promoter expression (in words)” value in assay [1] is reported as “inhibit las activity at all concentrations tested but only with moderate potency”. In assay [2], the activity at 50 µg/mL amounted to 98 ± 5%, the activity at 150 µg/mL was determined as 116 ± 9%, the activity at 200 µg/mL was found to be 121 ± 14% and the “effect on rhl activity (in words)” value is listed as “stimulated rhl activities with moderate potency”.

Consider `CCCCCCCCCSCC1NC(=O)C(O)C1O` (stereo not shown) [Compound 17, 3,4-Dihydroxy-5-(nonylthiomethyl)pyrrolidin-2-one], for which the “effect on las activity / lasI promoter expression (in words)” value in assay [1] is on record as “inhibit las activity at all concentrations tested but only with moderate potency”. For the same compound, in assay [2], the activity at 50 µg/mL worked out at 106 ± 3%, the activity at 150 µg/mL came to 115 ± 11%, the activity at 200 µg/mL was 135 ± 5% and the “effect on rhl activity (in words)” value is “stimulated rhl activities with moderate potency”.

In the case of `CCCCCCCCCSCC1CCC(=O)N1` (stereo not shown) [Compound 7c, 5-(Nonylthiomethyl)pyrrolidin-2-one], the inhibition at 50 µg/mL in assay [1] (setting [5]) amounted to 28%. Further, the “effect on las activity / lasI promoter expression (in words)” value in assay [1] is recorded as “greatest inhibition at all concentrations tested”. In assay [2], the activity at 50 µg/mL was determined as 95 ± 3%, the activity at 100 µg/mL was determined as 115 ± 30%, the activity at 150 µg/mL turned out to be 108 ± 12% and the activity at 200 µg/mL was 137 ± 46%.

As for `CCCCCCSCC1NC(=O)C(O)C1O` (stereo not shown) [Compound 16, 3,4-Dihydroxy-5-(hexylthiomethyl)pyrrolidin-2-one], in assay [1], the “effect on las activity / lasI promoter expression (in words)” value was “inhibit las activity at all concentrations tested but only with moderate potency”. In addition, in assay [2], the activity at 50 µg/mL was found to be 132 ± 36%, the activity at 100 µg/mL is 129 ± 10%, the activity at 150 µg/mL was determined as 148 ± 9% and the activity at 200 µg/mL was determined as 161 ± 7%. In addition, the “effect on rhl activity (in words)” value in assay [2] is listed as “stimulated rhl activities with moderate potency”.

Turning to `CCCCCCSCC1NC(O)C(O)C1O` (stereo not shown) [Compound 20, 3,4-Dihydroxy-5-(hexylthiomethyl)pyrrolidin-2-ol], the “effect on las activity / lasI promoter expression (in words)” value in assay [1] is reported as “inhibit las activity at all concentrations tested but only with moderate potency”. For the same compound, in assay [2], the activity at 50 µg/mL amounted to 94 ± 8%, the activity at 100 µg/mL came out at 105 ± 3%, the activity at 150 µg/mL is 109 ± 12% and the activity at 200 µg/mL came to 116 ± 18%. Moreover, the “effect on rhl activity (in words)” value in assay [2] is reported as “stimulated rhl activities with moderate potency”.

As for `CCCSCC1CCC(=O)N1` (stereo not shown) [Compound 7a, 5-(Propylthiomethyl)pyrrolidin-2-one], in assay [1] (setting [5]), the inhibition at 100 µg/mL is about 28%. Also, the “effect on las activity / lasI promoter expression (in words)” value in assay [1] is listed as “inhibited las activity at all concentrations tested”. The “effect on las activity / lasI promoter expression (in words)” value in assay [1] (listed as OMPP) is recorded as “dosed dependent inhibition”. In assay [2], the activity at 50 µg/mL was 104 ± 24%, the activity at 100 µg/mL amounted to 118%, the activity at 150 µg/mL turned out to be 104 ± 13% and the activity at 200 µg/mL was 108 ± 17%.

For `CCCCCCSCC1CCC(=O)N1` (stereo not shown) [Compound 7b, 5-(Hexylthiomethyl)pyrrolidin-2-one], in assay [1], the “effect on las activity / lasI promoter expression (in words)” value is “dosed dependent inhibition”. Moreover, in assay [2], the activity at 50 µg/mL was 126 ± 8%, the activity at 100 µg/mL was 126 ± 29%, the activity at 150 µg/mL worked out at 130 ± 31% and the “effect on rhl activity (in words)” value is recorded as “most active”.

For the compound `CCCC(=O)N[C@H]1CCOC1=O` [Compound C4-AHL, N-butanoyl-L-homoserine lactone, reference compound], in assay [2], the “effect on rhl activity (in words)” value is given as “activated the rhl β-galactosidase reporter”.

As for `N[C@@H](CCSCC1C(O)C(O)C(=O)N1Cc1ccccc1)C(=O)O` (stereo partly shown) [BDOH], in assay [4], the “anti-QS effect against V. harveyi (in words)” value is “strong anti-QS effect”.

As to `CCCSCC1CCC(O)N1` (stereo not shown) [Compound 10a, 5-(Propylthiomethyl)pyrrolidin-2-ol], the “stimulation of las reporter activity” value in assay [1] (50 μg/mL, 2 μM 3-oxo-C12-AHL) is recorded as about 2.3 fold. For the same compound, the “enhancement of las reporter activity” value in assay [1] (100 μg/mL, 2 μM 3-oxo-C12-AHL) was determined as 15%. In assay [1] (setting [6]), the inhibition at 150 µg/mL was 69% and the inhibition at 200 µg/mL is 89%. Besides, in assay [2], the activity at 50 µg/mL is 121 ± 6%, the activity at 100 µg/mL turned out to be 138 ± 3%, the activity at 200 µg/mL stood at 9% and the “effect on rhl activity (in words)” value is listed as “inhibited rhl activity”. For the same compound, in assay [4], the “anti-QS effect against V. harveyi (in words)” value is “strong anti-QS effect”.

`CCCCCCSCC1CCC(O)N1` (stereo not shown) [Compound 10b, 5-(Hexylthiomethyl)pyrrolidin-2-ol]: the “inhibition of las activity” value in assay [1] (all concentrations tested higher than 50 μg/mL) worked out at 100%. In addition, in assay [1], the “effect on las activity / lasI promoter expression (in words)” value is on record as “stimulated QS at 50 μg/mL but with much lesser potency”. Also, in assay [2], the activity at 50 µg/mL is 26% and the “effect on rhl activity (in words)” value is “inhibited rhl activity”. In addition, the “inhibition of rhl signaling (in words)” value in assay [2] (concentrations of 100 μg/mL and higher) was “completely inhibited”.
